According to patent US8741905B2, “Compounds and methods for treating autoimmune diseases” (The Broad Institute, Inc., priority 2010, dated 2014):

Legend:
Usp9x [1] = biological target: T1, Usp9x (Homo sapiens, UniProt Q93008); experiment: Usp9x thermal shift assay; format: binding; details: FIG. 14, purified Usp9x, compared with WP1130
T1 construct: made in house
Description: For each purification, fifty 25-cm dishes of confluent HEK-293 cell lines stably expressing wild-type USP-9X (provided by Dr. Dario Alessi, University of Dundee, Scotland) were employed. Cells were washed twice with ice-cold PBS and lysed in 1 ml of ice-cold lysis buffer. The combined lysates were centrifuged at 26000 g for 30 min at 4° C. and the supernatant incubated with 0.2 ml of rabbit IgG-agarose beads (Sigma) for 1 h at 4° C. The IgG-agarose was washed extensively with lysis buffer containing 0.15 M NaCl, then with several washes in buffer B prior to incubation with 0.250 ml of buffer B containing 0.1 mg of TEV protease (Invitrogen). After 3 h at 4° C.˜70-90% of the TAP-tagged protein had been cleaved from the IgG-agarose and the eluted protein was incubated with 0.1 ml of rabbit calmodulin-Sepharose (Roche) equilibrated in buffer C. After 1 h at 4° C., the calmodulin-Sepharose was washed with buffer C. To elute the protein, the calmodulin-Sepharose was then incubated with 0.1 ml of buffer D for 10 min at 4° C. The eluate was removed from the beads and the elution repeated two or three times. To remove the NaCl present in the buffer containing the eluate protein, the eluates were centrifuged at 1500 g for 1 min at 4° C. in protein desalting spin columns. […]

Usp9x [2] = experiment: Low-throughput compound pull-down and Western blot; format: binding; details: FIG. 13, Western blot
INS-1E cells = experiment: Caspase-3 activity assay (Caspase-Glo 3/7) in cytokine-treated INS-1E cells; format: cell-based, rat; details: cytokines
Description: INS-1E cells were seeded at 5,000 cells per well in white optical 384-well plates and treated as described for highthroughput screening. After treatment with cytokines and compounds for 48 h, medium was removed and 20 μL Caspase-Glo 3/7 reagent was added. Luminescence was measured after 2 h of incubation using an EnVision plate reader.

T1 sequence (Q93008 whole entry): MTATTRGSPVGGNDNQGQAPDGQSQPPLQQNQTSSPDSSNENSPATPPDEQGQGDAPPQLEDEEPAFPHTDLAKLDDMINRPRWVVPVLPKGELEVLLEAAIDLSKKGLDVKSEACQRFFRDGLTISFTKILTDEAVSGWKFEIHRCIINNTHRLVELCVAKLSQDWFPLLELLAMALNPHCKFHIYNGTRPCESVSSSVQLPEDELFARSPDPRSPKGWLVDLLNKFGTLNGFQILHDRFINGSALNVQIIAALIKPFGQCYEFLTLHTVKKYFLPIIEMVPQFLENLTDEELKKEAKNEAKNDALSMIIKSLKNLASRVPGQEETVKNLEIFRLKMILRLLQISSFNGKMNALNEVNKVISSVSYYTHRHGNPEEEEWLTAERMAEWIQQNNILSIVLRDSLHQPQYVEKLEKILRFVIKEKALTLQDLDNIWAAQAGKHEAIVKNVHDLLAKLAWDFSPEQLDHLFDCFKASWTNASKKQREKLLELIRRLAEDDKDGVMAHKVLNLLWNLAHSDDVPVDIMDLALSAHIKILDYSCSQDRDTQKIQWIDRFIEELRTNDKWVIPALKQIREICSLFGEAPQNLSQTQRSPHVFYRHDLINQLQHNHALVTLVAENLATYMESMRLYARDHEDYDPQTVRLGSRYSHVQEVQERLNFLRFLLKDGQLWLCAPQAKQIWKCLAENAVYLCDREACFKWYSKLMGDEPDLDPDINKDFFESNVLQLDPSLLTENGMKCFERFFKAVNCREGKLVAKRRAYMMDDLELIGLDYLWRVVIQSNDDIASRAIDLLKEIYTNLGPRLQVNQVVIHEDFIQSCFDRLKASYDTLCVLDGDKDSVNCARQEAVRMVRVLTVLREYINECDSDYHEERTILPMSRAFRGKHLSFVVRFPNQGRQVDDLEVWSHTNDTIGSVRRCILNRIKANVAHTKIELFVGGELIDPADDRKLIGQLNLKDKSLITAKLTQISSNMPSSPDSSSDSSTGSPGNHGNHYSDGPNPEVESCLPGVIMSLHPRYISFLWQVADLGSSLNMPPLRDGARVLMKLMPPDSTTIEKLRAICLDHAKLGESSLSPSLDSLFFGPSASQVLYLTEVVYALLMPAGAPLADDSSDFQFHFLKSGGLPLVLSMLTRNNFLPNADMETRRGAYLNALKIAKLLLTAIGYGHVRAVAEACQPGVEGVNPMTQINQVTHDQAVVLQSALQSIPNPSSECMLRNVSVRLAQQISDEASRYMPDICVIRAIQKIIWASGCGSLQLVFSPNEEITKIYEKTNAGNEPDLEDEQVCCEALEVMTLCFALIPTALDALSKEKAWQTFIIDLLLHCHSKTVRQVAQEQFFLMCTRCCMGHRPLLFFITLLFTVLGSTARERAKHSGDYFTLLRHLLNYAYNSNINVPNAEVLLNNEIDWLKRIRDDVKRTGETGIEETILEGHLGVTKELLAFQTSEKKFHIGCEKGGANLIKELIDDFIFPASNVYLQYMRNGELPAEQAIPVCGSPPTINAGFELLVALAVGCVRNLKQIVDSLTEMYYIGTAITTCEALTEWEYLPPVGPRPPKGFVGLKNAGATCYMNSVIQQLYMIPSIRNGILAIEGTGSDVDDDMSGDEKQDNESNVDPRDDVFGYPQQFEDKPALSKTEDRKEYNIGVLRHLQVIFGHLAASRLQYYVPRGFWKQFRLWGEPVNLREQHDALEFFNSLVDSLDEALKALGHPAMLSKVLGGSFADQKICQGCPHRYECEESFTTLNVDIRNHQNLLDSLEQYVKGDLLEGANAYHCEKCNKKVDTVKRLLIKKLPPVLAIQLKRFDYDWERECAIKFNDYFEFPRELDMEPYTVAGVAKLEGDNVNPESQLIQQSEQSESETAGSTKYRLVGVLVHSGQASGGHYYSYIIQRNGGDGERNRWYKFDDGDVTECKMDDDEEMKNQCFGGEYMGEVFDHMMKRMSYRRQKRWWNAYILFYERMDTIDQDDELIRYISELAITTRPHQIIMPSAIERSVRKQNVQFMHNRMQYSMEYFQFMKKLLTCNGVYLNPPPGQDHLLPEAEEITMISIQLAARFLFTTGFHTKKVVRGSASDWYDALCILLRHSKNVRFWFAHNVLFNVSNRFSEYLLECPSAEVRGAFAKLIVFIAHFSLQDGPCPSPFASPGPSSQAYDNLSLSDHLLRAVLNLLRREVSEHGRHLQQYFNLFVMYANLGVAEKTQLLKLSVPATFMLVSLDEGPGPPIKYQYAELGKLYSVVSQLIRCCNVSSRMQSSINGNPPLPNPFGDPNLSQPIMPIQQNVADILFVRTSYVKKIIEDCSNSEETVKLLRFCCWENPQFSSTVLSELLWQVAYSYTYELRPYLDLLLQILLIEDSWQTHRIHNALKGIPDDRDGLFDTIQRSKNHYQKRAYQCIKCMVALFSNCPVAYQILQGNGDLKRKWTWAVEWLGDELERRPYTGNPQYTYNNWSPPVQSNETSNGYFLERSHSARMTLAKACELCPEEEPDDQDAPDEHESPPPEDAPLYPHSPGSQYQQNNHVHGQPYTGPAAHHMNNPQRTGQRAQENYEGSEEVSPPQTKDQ

C[C@@H]1CN([C@@H](C)CO)C(=O)c2cccc(NC(=O)Nc3cccc4ccccc34)c2O[C@H]1CN(C)S(=O)(=O)c1ccc2c(c1)OCCO2 [Compound 21A, N-(((2R,3R)-5-((S)-1-Hydroxypropan-2-yl)-3-methyl-10-(3-(naphthalen-1-yl)ureido)-6-oxo-3,4,5,6-tetrahydro-2H-benzo[b][1,5]oxazocin-2-yl)methyl)-N-methyl-2,3-dihydrobenzo-[b][1,4]dioxine-6-sulfonamide]
Usp9x thermal shift (Usp9x [1]): suggests binding | protein isolated by compound pull-down (Usp9x [2]): Usp9x isolated | EC50 (INS-1E cells; Rattus norvegicus, 48 h, Caspase-Glo 3/7): > 10 µM | caspase-3/7 activity in INS-1E cells (INS-1E cells): decreased caspase-3/7 activity
